Results: patent US20220081421A1, “ANTIBACTERIAL COMPOUNDS” (Forge Therapeutics, Inc., priority 2018, published 2022)
Values after ≈ are worked out from the molar mass of the structure shown.

Experiments:
E. coli = experiment: MIC by broth microdilution (CLSI), E. coli; format: cell-based; conditions: Escherichia coli, broth microdilution, cation adjusted Mueller-Hinton Broth, 35° C., 18-24 h; read-out: E. coli MIC
Description: (§1) Minimal inhibitory concentrations (MIC) were determined by the broth microdilution method in accordance with the Clinical and Laboratory Standards Institute (CLSI) guidelines. In brief, organism suspensions were adjusted to a 0.5 McFarland standard to yield a final inoculum between 3×10^5 and 7×10^5 colony-forming units (CFU)/mL. Drug dilutions and inocula were made in sterile, cation adjusted Mueller-Hinton Broth (Beckton Dickinson). An inoculum volume of 100 μL was added to wells containing 100 μL of broth with 2-fold serial dilutions of drug. All inoculated microdilution trays were incubated in ambient air at 35° C. for 18-24 h. Following incubation, the lowest concentration of the drug that prevented visible growth (OD600 nm<0.05) was recorded as the MIC. Performance of the assay was monitored by the use of laboratory quality-control strains and levofloxacin, a compound with a defined MIC spectrum, in accordance with CLSI guidelines.

K. pneumoniae = experiment: MIC by broth microdilution (CLSI), K. pneumoniae; format: cell-based; conditions: Klebsiella pneumoniae, broth microdilution, cation adjusted Mueller-Hinton Broth, 35° C., 18-24 h; read-out: K. pneumoniae MIC
Description: as §1

Compound	MIC (E. coli) [mg/L]	MIC (K. pneumoniae) [mg/L]
Nc1ncc(C#Cc2ccc(CC(C(=O)NCC(F)F)c3nc[nH]c(=O)c3O)cc2)cn1 (centres unmarked) [Compound 24, 3-(4-((2-aminopyrimidin-5-yl)ethynyl)phenyl)-N-(2,2-difluoroethyl)-2-(5-hydroxy-6-oxo-1,6-dihydropyrimidin-4-yl)propanamide]	> 32	> 32
Cc1ncc(C#Cc2ccc(CC(C(=O)NCC(F)F)c3nc[nH]c(=O)c3O)cc2)cn1 (centres unmarked) [Compound 25, N-(2,2-difluoroethyl)-2-(5-hydroxy-6-oxo-1,6-dihydropyrimidin-4-yl)-3-(4-((2-methylpyrimidin-5-yl)ethynyl)phenyl)propanamide]	> 32	> 32
O=C(NCC(F)F)C(Cc1ccc(C#Cc2ccc(C(F)(F)F)nc2)cc1)c1nc[nH]c(=O)c1O (centres unmarked) [Compound 26, N-(2,2-difluoroethyl)-2-(5-hydroxy-6-oxo-1,6-dihydropyrimidin-4-yl)-3-(4-((6-(trifluoromethyl)pyridin-3-yl)ethynyl)phenyl) propanamide]	> 32	> 32
O=C(NCC(F)F)C(Cc1ccc(C#Cc2cnc(C(F)(F)F)nc2)cc1)c1nc[nH]c(=O)c1O (centres unmarked) [Compound 27, N-(2,2-difluoroethyl)-2-(5-hydroxy-6-oxo-1,6-dihydropyrimidin-4-yl)-3-(4-((2-(trifluoromethyl)pyrimidin-5-yl)ethynyl)phenyl) propanamide]	> 32	> 32
COC(=O)NCC(Cc1ccc(C#Cc2ccc(CN3CCOCC3)cc2)cn1)c1nc[nH]c(=O)c1O (centres unmarked) [Compound 29, methyl (2-(5-hydroxy-6-oxo-1,6-dihydropyrimidin-4-yl)-3-(5-((4-(morpholinomethyl)phenyl)ethynyl)pyridin-2-yl)propyl)carbamate]	> 32	> 32
O=c1[nH]cnc(C(CNCCF)Cc2ccc(C#Cc3ccc(CN4CCOCC4)cn3)cc2)c1O (centres unmarked) [Compound 30, 6-(1-((2-fluoroethyl)amino)-3-(4-((5-(morpholinomethyl)pyridin-2-yl)ethynyl)phenyl)propan-2-yl)-5-hydroxypyrimidin-4(3H)-one]	> 32	> 32
O=c1[nH]cnc(C(CNCCF)Cc2ccc(C#Cc3ccc(CN4CCOCC4)nc3)cc2)c1O (centres unmarked) [Compound 31, 6-(1-((2-fluoroethyl)amino)-3-(4-((6-(morpholinomethyl)pyridin-3-yl)ethynyl)phenyl)propan-2-yl)-5-hydroxypyrimidin-4(3H)-one]	> 32	> 32
C=CCNCC(Cc1ccc(C#CC#Cc2cnc(C)nc2)cc1)c1nc[nH]c(=O)c1O (centres unmarked) [Compound 37, 6-(1-(allylamino)-3-(4-((2-methylpyrimidin-5-yl)buta-1,3-diyn-1-yl)phenyl)propan-2-yl)-5-hydroxypyrimidin-4(3H)-one]	8 to 32 (≈ 18.8 to 75.2 µM)	> 32
O=C(NCC(F)F)C(Cc1ccc(-c2ccc(-n3cccn3)cc2)cc1)c1nc[nH]c(=O)c1O (centres unmarked) [Compound 38, 3-(4′-(1H-pyrazol-1-yl)-[1,1-biphenyl]-4-yl)-N-(2,2-difluoroethyl)-2-(5-hydroxy-6-oxo-1,6-dihydropyrimidin-4-yl)propanamide]	> 32	> 32
N#Cc1ccc(-c2ccc(CC(C(=O)NCC(F)F)c3nc[nH]c(=O)c3O)cc2)cc1 (centres unmarked) [Compound 39, 3-(4′-cyano-[1,1′-biphenyl]-4-yl)-N-(2,2-difluoroethyl)-2-(5-hydroxy-6-oxo-1,6-dihydropyrimidin-4-yl)propanamide]	> 32	> 32
O=c1[nH]cnc(C2(Cn3ccc(C#Cc4ccc(CN5CCOCC5)cc4)cc3=O)CC2)c1O [Compound 43, 5-hydroxy-6-(1-((4-((4-(morpholinomethyl)phenyl)ethynyl)-2-oxopyridin-1(2H)-yl)methyl)cyclopropyl) pyrimidin-4(3H)-one]	> 32	> 32
CC(C)C#CC#Cc1ccc(CC(CNCCF)c2nc[nH]c(=O)c2O)cc1 (centres unmarked) [Compound 66, 6-(1-((2-fluoroethyl)amino)-3-(4-(5-methylhexa-1,3-diyn-1-yl)phenyl)propan-2-yl)-5-hydroxypyrimidin-4(3H)-one]	8 to 32 (≈ 21 to 83.9 µM)	8 to 32 (≈ 21 to 83.9 µM)
C=CCNCC(Cc1ccc(C#CC#Cc2cn[nH]c2)cc1)c1nc[nH]c(=O)c1O (centres unmarked) [Compound 67, 6-(1-(4-((1H-pyrazol-4-yl)buta-1,3-diyn-1-yl)phenyl)-3-(allylamino)propan-2-yl)-5-hydroxypyrimidin-4(3H)-one]	8 to 32 (≈ 20 to 80.1 µM)	> 32
O=c1[nH]cnc(C(CNCCF)Cc2ccc(C#CC#CC3CC3)cc2)c1O (centres unmarked) [Compound 68, 6-(1-(4-(cyclopropylbuta-1,3-diyn-1-yl)phenyl)-3-((2-fluoroethyl)amino)propan-2-yl)-5-hydroxypyrimidin-4(3H)-one]	> 32	> 32
O=C1N(CCc2nc[nH]c(=O)c2O)Cc2cc(Br)cn21 [Compound 69, 6-bromo-2-(2-(5-hydroxy-6-oxo-1,6-dihydropyrimidin-4-yl)ethyl)-1,2-dihydro-3H-pyrrolo[1,2-c]imidazol-3-one]	> 32	> 32
O=C(Cc1nc[nH]c(=O)c1O)N1CCC(C#Cc2ccc(CN3CCOCC3)cc2)CC1 [Compound 77, 5-hydroxy-6-(2-(4-((4-(morpholinomethyl)phenyl)ethynyl)piperidin-1-yl)-2-oxoethyl)pyrimidin-4(3H)-one]	8 to 32 (≈ 18.3 to 73.3 µM)	> 32
O=c1[nH]cnc(CCN2CCC(C#Cc3ccc(CN4CCOCC4)cc3)CC2)c1O [Compound 78, 5-hydroxy-6-(2-(4-((4-(morpholinomethyl)phenyl)ethynyl)piperidin-1-yl)ethyl)pyrimidin-4(3H)-one]	8 to 32 (≈ 18.9 to 75.7 µM)	> 32
O=C(NCCc1nc[nH]c(=O)c1O)n1cc(C#Cc2ccc(CN3CCOCC3)cc2)cc1CO [Compound 79, N-(2-(5-hydroxy-6-oxo-1,6-dihydropyrimidin-4-yl)ethyl)-2-(hydroxymethyl)-4-((4-(morpholinomethyl)phenyl)ethynyl)-1H-pyrrole-1-carboxamide]	8 to 32 (≈ 16.8 to 67 µM)	> 32

The remaining lines, values ahead:

MIC (E. coli) [mg/L]	MIC (K. pneumoniae) [mg/L]	Compound
8 to 32 (≈ 18.2 to 72.8 µM)	> 32	Nc1ccc(C#Cc2ccc(CC(C(=O)NCC(F)F)c3nc[nH]c(=O)c3O)cc2)cn1 (centres unmarked) [Compound 28, 3-(4-((6-aminopyridin-3-yl)ethynyl)phenyl)-N-(2,2-difluoroethyl)-2-(5-hydroxy-6-oxo-1,6-dihydropyrimidin-4-yl)propanamide]
1 to 8 (≈ 2.19 to 17.5 µM)	1 to 8 (≈ 2.19 to 17.5 µM)	O=C(NCCO)c1ccc(C#CC#Cc2ccc(CC(CO)c3nc[nH]c(=O)c3O)cc2)cc1 (centres unmarked) [Compound 32, 4-((4-(3-hydroxy-2-(5-hydroxy-6-oxo-1,6-dihydropyrimidin-4-yl)propyl)phenyl)buta-1,3-diyn-1-yl)-N-(2-hydroxyethyl)benzamide]
1 to 8 (≈ 2.09 to 16.7 µM)	1 to 8 (≈ 2.09 to 16.7 µM)	C=C(Cc1ccc(C#CC#Cc2ccc(C(=O)N3CCN(C)CC3)cc2)cc1)c1nc[nH]c(=O)c1O [Compound 33, 5-hydroxy-6-(3-(4-((4-(4-methylpiperazine-1-carbonyl)phenyl)buta-1,3-diyn-1-yl)phenyl)prop-1-en-2-yl)pyrimidin-4(3H)-one]
1 to 8 (≈ 2.01 to 16.1 µM)	8 to 32 (≈ 16.1 to 64.4 µM)	C=CCNCC(Cc1ccc(C#CC#Cc2ccc(C(=O)NCCO)cc2)cc1)c1nc[nH]c(=O)c1O (centres unmarked) [Compound 34, 4-((4-(3-(allylamino)-2-(5-hydroxy-6-oxo-1,6-dihydropyrimidin-4-yl)propyl)phenyl)buta-1,3-diyn-1-yl)-N-(2-hydroxyethyl)benzamide]
1 to 8 (≈ 2.21 to 17.6 µM)	> 32	C=CCNCC(Cc1ccc(C#CC#Cc2ccc(C(=O)O)cc2)cc1)c1nc[nH]c(=O)c1O (centres unmarked) [Compound 35, 4-((4-(3-(allylamino)-2-(5 hydroxy-6-oxo-1,6-dihydropyrimidin-4-yl)propyl)phenyl)buta-1,3-diyn-1-yl)benzoic acid]
8 to 32 (≈ 18.8 to 75.4 µM)	> 32	C=CCNCC(Cc1ccc(C#CC#Cc2ccccc2N)cc1)c1nc[nH]c(=O)c1O (centres unmarked) [Compound 36, 6-(1-(allylamino)-3-(4-((2-aminophenyl)buta-1,3-diyn-1-yl)phenyl)propan-2-yl)-5-hydroxypyrimidin-4(3H)-one]
1 to 8 (≈ 2.33 to 18.6 µM)	1 to 8 (≈ 2.33 to 18.6 µM)	O=C(NCC(F)F)C(Cc1ccc(C#CC#CC2CC2)c(F)c1)c1nc[nH]c(=O)c1O (centres unmarked) [Compound 61, 3-(4-(cyclopropylbuta-1,3-diyn-1-yl)-3-fluorophenyl)-N-(2,2-difluoroethyl)-2-(5-hydroxy-6-oxo-1,6-dihydropyrimidin-4-yl)propanamide]
1 to 8 (≈ 2.42 to 19.3 µM)	8 to 32 (≈ 19.3 to 77.4 µM)	C=CCNCC(Cc1ccc(C#CC#Cc2cnn(C)c2)cc1)c1nc[nH]c(=O)c1O (centres unmarked) [Compound 62, 6-(1-(allylamino)-3-(4-((1-methyl-1H-pyrazol-4-yl)buta-1,3-diyn-1-yl)phenyl)propan-2-yl)-5-hydroxypyrimidin-4(3H)-one]
1 to 8 (≈ 2.32 to 18.5 µM)	8 to 32 (≈ 18.5 to 74.2 µM)	CC(C)C#CC#Cc1ccc(CC(C(=O)NCC(F)F)c2nc[nH]c(=O)c2O)cc1F (centres unmarked) [Compound 63, N-(2,2-difluoroethyl)-3-(3-fluoro-4-(5-methylhexa-1,3-diyn-1-yl)phenyl)-2-(5-hydroxy-6-oxo-1,6-dihydropyrimidin-4-yl)propanamide]
1 to 8 (≈ 2.54 to 20.3 µM)	1 to 8 (≈ 2.54 to 20.3 µM)	CC(=O)NCC(Cc1ccc(C#CC#CC2CC2)c(F)c1)c1nc[nH]c(=O)c1O (centres unmarked) [Compound 64, N-(3-(4-(cyclopropylbuta-1,3-diyn-1-yl)-3-fluorophenyl)-2-(5-hydroxy-6-oxo-1,6-dihydropyrimidin-4-yl)propyl)acetamide]
